Measurements taken from paper PMC12368479, “Inhibition of the Clathrin Terminal Domain—Amphiphysin Protein–Protein Interaction. Probing the Pitstop 2 Aromatic Moiety” (Chemmedchem, 2025).
Several values for one entry are separate records, joined by “and”; a condition that tells them apart may be missing. Equal entries are not always repeated. Where two headings read alike, the source gives them in different places.

Experiments:
[1] = target: T1, clathrin heavy chain NTD (amino acids 1–364) – amphiphysin 1 B/C domain protein–protein interaction (NTD‐PPI) (Homo sapiens, UniProt Q00610); test: ELISA-based clathrin inhibitor binding assay (NTD-PPI)
T1 construct: GST‐tagged clathrin heavy chain NTD (amino acids 1–364); made in house
T1 sequence (Q00610 1-364): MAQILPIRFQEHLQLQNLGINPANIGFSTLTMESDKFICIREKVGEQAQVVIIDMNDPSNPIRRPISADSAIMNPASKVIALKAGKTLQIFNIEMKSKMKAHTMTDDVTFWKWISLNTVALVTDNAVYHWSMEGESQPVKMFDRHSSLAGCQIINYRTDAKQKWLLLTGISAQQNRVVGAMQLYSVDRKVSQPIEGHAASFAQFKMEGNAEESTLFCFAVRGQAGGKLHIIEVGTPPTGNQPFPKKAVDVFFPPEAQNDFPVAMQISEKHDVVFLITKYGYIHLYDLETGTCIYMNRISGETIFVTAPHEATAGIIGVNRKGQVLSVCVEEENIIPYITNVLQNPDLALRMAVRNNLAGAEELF
Protocol: The clathrin inhibitor assay was based inhibition of protein–protein interaction (PPI) between clathrin and amphiphysin as described in our previous report.^[ [45], [54] ^] Bacterially expressed recombinant purified His6‐tagged amphiphysin 1 B/C domain (which comprises both the clathrin and the AP‐2 binding sites, amino acids 250‐578^[ [55] ^]) in screening buffer (20 mM HEPES, pH 7.4, 50 mM NaCl, 1 mM DTT, 1 mM PMSF) was added to a 384 well ELISA plate (Corning Maxisorp 3700) and bound to the plastic for 1 h at room temperature. […] Following extensive washes (with 20 mM HEPES, pH 7.4, 50 mM NaCl, 0.05% Tween 20), chemical compounds diluted in DMSO (10 μL) were added and incubated together with bacterially expressed recombinant GST‐tagged clathrin heavy chain NTD (amino acids 1–364) for 1 h at room temperature in screening buffer. After 3 washes, horseradish peroxidase‐coupled anti‐GST antibodies were added in screening buffer and the plate incubated for 40 min at room temperature. Following additional washes, 50 μL TMB (3,3′,5,5′‐tetramethylbenzidine) (Pierce Biotechnology) chromogenic substrate of horseradish peroxidase was added, and the plate was incubated for 10 min before the reaction was terminated by adding 50 μL 1N sulfuric acid to produce a yellow colour. The amount of bound protein was determined by spectrophotometric measurement in a plate reader. Relative binding was calculated as a percentage of DMSO control.

[2] = test system: transferrin uptake (CME) in U2OS osteosarcoma cells; test: Clathrin-mediated endocytosis assay: transferrin (Tfn) uptake in U2OS cells; type: cell-based; settings: for IC50 / inhibition at 5 µM / inhibition at 50 µM: Homo sapiens, U2OS; for IC50: Table 5, inhibition of transferrin‐red uptake in U2OS cells, '–'/NA = not active at 100 μM; for inhibition at 5 µM: read-out: 2-point CME (% Inhibition) 5 µM; for inhibition at 50 µM: read-out: 2-point CME (% Inhibition) 50 µM
Protocol: Using our previously reported CME assay in U2OS cells, the ability of these compounds to block endocytosis was examined (Table 5 ).^[ [48], [49] ^]
CME was examined by a high‐throughput, quantitative assay for measuring transferrin (Tfn) uptake in U2OS osteosarcoma cells, based on methods described previously.^[ [48] ^]
Compounds were made up fresh from powder stock just prior to commencing the assay, and stock solutions were stored at −20 °C for several months.

[3] = target: T2, full length human Dynamin I (Homo sapiens, UniProt Q05193); test: Dynamin GTPase activity, Malachite Green phosphate detection assay; type: biochemical
T2 construct: full length human Dynamin I expressed in Sf21 insect cells; made in house; host or cells: Sf21 insect cells
T2 sequence (Q05193 1-864): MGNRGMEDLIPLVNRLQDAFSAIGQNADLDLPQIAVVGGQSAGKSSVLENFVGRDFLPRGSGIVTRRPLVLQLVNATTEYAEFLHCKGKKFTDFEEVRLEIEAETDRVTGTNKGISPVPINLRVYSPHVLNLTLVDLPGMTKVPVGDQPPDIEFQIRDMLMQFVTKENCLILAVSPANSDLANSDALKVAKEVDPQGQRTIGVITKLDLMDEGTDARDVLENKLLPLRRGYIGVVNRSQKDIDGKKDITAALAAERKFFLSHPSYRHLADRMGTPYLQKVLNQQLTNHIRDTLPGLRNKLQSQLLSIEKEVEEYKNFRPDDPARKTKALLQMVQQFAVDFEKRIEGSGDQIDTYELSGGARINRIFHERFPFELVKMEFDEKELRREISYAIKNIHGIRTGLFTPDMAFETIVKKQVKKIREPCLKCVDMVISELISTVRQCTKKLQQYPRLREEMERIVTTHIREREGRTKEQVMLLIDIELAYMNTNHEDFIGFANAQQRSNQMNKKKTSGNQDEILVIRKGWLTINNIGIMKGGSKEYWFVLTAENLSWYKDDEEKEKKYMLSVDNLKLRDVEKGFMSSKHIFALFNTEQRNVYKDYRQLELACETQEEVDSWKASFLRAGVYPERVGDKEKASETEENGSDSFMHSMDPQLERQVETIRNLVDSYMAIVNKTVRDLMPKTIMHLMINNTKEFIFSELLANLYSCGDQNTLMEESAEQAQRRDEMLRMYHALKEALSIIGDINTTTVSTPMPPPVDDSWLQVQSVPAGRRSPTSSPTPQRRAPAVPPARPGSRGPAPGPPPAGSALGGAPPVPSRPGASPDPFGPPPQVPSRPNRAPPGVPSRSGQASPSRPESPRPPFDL
Protocol: Dynamin GTPase activity was determined in vitro using the Malachite Green phosphate detection absorbance‐based assay within a 96‐well plate format as described previously. The enzyme source was full length human Dynamin I expressed in Sf21 insect cells and affinity‐purified on GST‐Amph2‐SH3 (rat Amphiphysin 2 (494–588)).^[ [56] ^]

[4] = Table 5, ELISA, read-out: NTD‐PPI IC50
[5] = Table 5, dynamin GTPase, n = 1 or n = 2 as footnoted, NA = not active at 100 μM, read-out: Dynamin 1 IC50
[6] = Table S1, preliminary (n=1) unless otherwise noted, NA = not active, includes IC50 > 150 μM, read-out: Dynamin 1 IC50
[7] = Table 4, library 4, ELISA, average of duplicate measurements (n = 2), read-out: NTD‐PPI IC50
[8] = Table 4, library 4, n = 1 or n = 2 as footnoted, '–' = not active at 100 μM, read-out: Dynamin 1 IC50
[9] = Table S1, average of duplicate measurements (n=2), read-out: NTD-PPI IC50

Structure (SMILES) | IC50 [1, 4] [µM] | IC50 [2] [µM] | inhibition at 5 µM [2] [%] | inhibition at 50 µM [2] [%] | IC50 [3, 6] [µM] | IC50 [1, 7] [µM] | IC50 ([1]; read-out: NTD‐PPI IC50 (ELISA)) | IC50 [3, 8] [µM] | also measured
O=C1N=C(NS(=O)(=O)c2cccc3ccccc23)SC1=Cc1ccc(-c2ccccc2)cc1 [compound 18, N‐(5‐([1,1'‐biphenyl]‐4‐ylmethylene)‐4‐oxo‐4,5‐dihydrothiazol‐2‐yl)naphthalene‐1‐sulfonamide] | 1.4 | ~43.1 |  |  |  |  |  |  | IC50 ([3]; Table 1, library 1, n = 1 unless noted (19: n = 2), '–' = not active at 150 μM, read-out: Dyn 1 IC50): 85 µM; IC50 [3, 5]: 85.3 µM
CCCC/C=C1\SC(NS(=O)(=O)c2cccc3ccccc23)=NC1=O [compound 42, (Z)‐N‐(4‐oxo‐5‐pentylidene‐4,5‐dihydrothiazol‐2‐yl)naphthalene‐1‐sulfonamide] |  |  | 0 | 31 | > 150 |  |  |  | IC50 ([1]; Table 3, library 3, ELISA, average of duplicate measurements (n = 2), read-out: NTD‐PPI IC50): 6.5 µM; IC50 ([3]; Table 3, library 3, n = 1 unless otherwise stated (41, 42: n = 2), '–' = not active at 100 μM, read-out: Dynamin 1 IC50): > 100 µM
O=C1N=C(NS(=O)(=O)c2cccc3ccccc23)S/C1=C\c1ccc2c(c1)OCCO2 [compound 54, (Z)‐N‐(5‐((2,3‐dihydrobenzo[b][1,4]dioxin‐6‐yl)methylene)‐4‐oxo‐4,5‐dihydrothiazol‐2‐yl)naphthalene‐1‐sulfonamide] | 1.2 | ~35 |  |  |  | 1.2 | 1.16 µM | 60.1 ± 8.6 | fold activity increase (NTD‐PPI) relative to 56 ([1]; ELISA): > 3 fold; CME activity compared with Pitstop 2 ([2]; U2OS cells, in words): threefold decrease; IC50 [3, 5]: 60.1 ± 8.6 µM; IC50 ([3]; values quoted in running text (section 2.2), read-out: Dynamin IC50): 60 µM
O=C1N=C(NS(=O)(=O)c2cccc3ccccc23)S/C1=C\c1ccc2c(c1)OCO2 [compound 56, (Z)‐N‐(5‐(benzo[d][1,3]dioxol‐5‐ylmethylene)‐4‐oxo‐4,5‐dihydrothiazol‐2‐yl)naphthalene‐1‐sulfonamide] | 3.2 | 19.4 ± 10.5 |  |  |  | 3.2 | < 5 µM and 4 µM | > 100 | NTD‐PPI activity relative to 54 ([1]; ELISA, in words): threefold less active; CME activity compared with Pitstop 2 ([2]; U2OS cells, in words): comparable; CME inhibition relative to dihydrobenzofuran 57 ([2]; U2OS cells, in words): threefold increase
O=C1N=C(NS(=O)(=O)c2cccc3ccccc23)S/C1=C\c1ccc2[nH]ccc2c1 [compound 59, (Z)‐N‐(5‐((1H‐indol‐5‐yl)methylene)‐4‐oxo‐4,5‐dihydrothiazol‐2‐yl)naphthalene‐1‐sulfonamide] |  |  | 0 | 83 |  | 3.66 |  | 83.8 ± 10.7 | IC50 [1, 9]: 3.7 µM
O=C1N=C(NS(=O)(=O)c2cccc3ccccc23)S/C1=C\c1c[nH]c2ccccc12 [compound 60, (Z)‐N‐(5‐((1H‐indol‐3‐yl)methylene)‐4‐oxo‐4,5‐dihydrothiazol‐2‐yl)naphthalene‐1‐sulfonamide] |  |  | 0 | 38 | > 150 | 3.2 |  |  | 
Cn1cc(/C=C2\SC(NS(=O)(=O)c3cccc4ccccc34)=NC2=O)c2ccccc21 [compound 61, (Z)‐N‐(5‐((1‐methyl‐1H‐indol‐3‐yl)methylene)‐4‐oxo‐4,5‐dihydrothiazol‐2‐yl)naphthalene‐1‐sulfonamide] |  |  | 9 | 69 | > 150 | 3.05 | 3 µM |  | 
Cc1[nH]c2ccccc2c1/C=C1\SC(NS(=O)(=O)c2cccc3ccccc23)=NC1=O [compound 62, (Z)‐N‐(5‐((2‐methyl‐1H‐indol‐3‐yl)methylene)‐4‐oxo‐4,5‐dihydrothiazol‐2‐yl)naphthalene‐1‐sulfonamide] |  |  | 6 | 71 | > 150 | 2.37 | 2.4 µM | > 100 | 
Cc1ccc2[nH]cc(/C=C3\SC(NS(=O)(=O)c4cccc5ccccc45)=NC3=O)c2c1 [compound 63, (Z)‐N‐(5‐((5‐methyl‐1H‐indol‐3‐yl)methylene)‐4‐oxo‐4,5‐dihydrothiazol‐2‐yl)naphthalene‐1‐sulfonamide] |  |  | 6 | 68 | > 150 | 3.52 | 3.5 µM | > 100 | 
O=C1N=C(NS(=O)(=O)c2cccc3ccccc23)S/C1=C\c1c[nH]c2cc(Br)ccc12 [compound 64, (Z)‐N‐(5‐((6‐bromo‐1H‐indol‐3‐yl)methylene)‐4‐oxo‐4,5‐dihydrothiazol‐2‐yl)naphthalene‐1‐sulfonamide] |  |  | 17 | 70 | > 150 | 3.42 | 3.4 µM | > 100 | 
O=C1N=C(NS(=O)(=O)c2cccc3ccccc23)S/C1=C\c1c[nH]c2ccc(Br)cc12 [compound 65, (Z)‐N‐(5‐((5‐bromo‐1H‐indol‐3‐yl)methylene)‐4‐oxo‐4,5‐dihydrothiazol‐2‐yl)naphthalene‐1‐sulfonamide] |  |  | 0 | 64 | > 150 | 2.91 |  | > 100 | IC50 [1, 9]: 2.9 µM
O=C1N=C(NS(=O)(=O)c2cccc3ccccc23)S/C1=C\c1cn(S(=O)(=O)c2ccccc2)c2ccccc12 [compound 68, (Z)‐N‐(4‐oxo‐5‐((1‐(phenylsulfonyl)‐1H‐indol‐3‐yl)methylene)‐4,5‐dihydrothiazol‐2‐yl)naphthalene‐1‐sulfonamide] | 27 | > 100 | 8 | 59 |  | 27 |  | 99.8 ± 3.1 | IC50 [3, 5]: 99.8 ± 3.1 µM
